According to patent US10947289B2, “Glyco-modified atrial natriuretic peptide” (priority 2013, dated 2021):

What follows are molecules tested against T1, human GC-A (Homo sapiens, UniProt P16066) (assay: cGMP elevating activity in CHO/human GC-A cells (Test Example 1)).
T1 construct: expressed in transfected cells; host or cells: CHO cells
T1 sequence (P16066 33-1061): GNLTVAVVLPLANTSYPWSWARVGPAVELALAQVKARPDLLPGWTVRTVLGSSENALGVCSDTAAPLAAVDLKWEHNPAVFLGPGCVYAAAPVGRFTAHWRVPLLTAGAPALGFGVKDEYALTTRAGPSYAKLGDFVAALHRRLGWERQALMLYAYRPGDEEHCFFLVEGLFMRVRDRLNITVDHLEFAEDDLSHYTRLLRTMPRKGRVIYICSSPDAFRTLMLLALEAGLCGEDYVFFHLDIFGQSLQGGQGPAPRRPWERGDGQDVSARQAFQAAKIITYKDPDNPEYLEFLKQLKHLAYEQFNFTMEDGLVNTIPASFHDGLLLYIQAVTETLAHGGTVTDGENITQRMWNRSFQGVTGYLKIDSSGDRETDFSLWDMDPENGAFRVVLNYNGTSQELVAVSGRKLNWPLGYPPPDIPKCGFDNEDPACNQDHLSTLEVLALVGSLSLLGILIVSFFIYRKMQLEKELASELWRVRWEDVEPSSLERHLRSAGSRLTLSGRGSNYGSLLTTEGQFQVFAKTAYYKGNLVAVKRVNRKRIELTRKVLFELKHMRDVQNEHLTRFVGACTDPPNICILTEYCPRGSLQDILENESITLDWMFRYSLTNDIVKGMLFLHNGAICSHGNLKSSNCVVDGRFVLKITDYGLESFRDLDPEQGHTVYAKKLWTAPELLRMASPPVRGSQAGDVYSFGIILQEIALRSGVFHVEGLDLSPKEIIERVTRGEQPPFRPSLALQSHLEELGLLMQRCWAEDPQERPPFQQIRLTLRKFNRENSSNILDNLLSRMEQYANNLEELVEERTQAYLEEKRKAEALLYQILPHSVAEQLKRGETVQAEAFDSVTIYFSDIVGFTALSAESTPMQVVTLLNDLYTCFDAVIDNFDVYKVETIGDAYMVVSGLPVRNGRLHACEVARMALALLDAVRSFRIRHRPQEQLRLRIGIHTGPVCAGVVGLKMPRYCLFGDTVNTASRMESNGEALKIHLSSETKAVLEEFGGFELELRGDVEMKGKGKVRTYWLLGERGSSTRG
Assay type: cell-based
In short: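 CHO cells stably expressing human GC-A, pre-incubated 10 min at room temperature in 1.6 mM IBMX/KRB, then exposed to test peptide 15 min in CO2 incubator. Lysate cGMP measured by HTRF. Activity (T/C) scaled so solvent-only = 0 and 1 nM ANP = 1.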

SMILES	EC50
CC[C@H](C)[C@@H]1NC(=O)[C@H](CCCNC(=N)N)NC(=O)[C@H](CC(=O)O)NC(=O)[C@H](CCSC)NC(=O)[C@H](CCCNC(=N)N)NC(=O)CNC(=O)CNC(=O)[C@H](Cc2ccccc2)NC(=O)[C@@H](NC(=O)[C@H](CO)NC(=O)[C@H](CO)NC(=O)[C@H](CCCNC(=N)N)NC(=O)[C@H](CCCNC(=N)N)NC(=O)[C@H](CC(C)C)NC(=O)[C@H](CO)NC(=O)CCOCCOCCOCCOCCNC(=O)[C@H](CCCCNC(=O)CCSCC(=O)NCCO[C@@H]2O[C@H](CO)[C@@H](O[C@@H]3O[C@H](CO)[C@@H](O[C@@H]4O[C@H](CO[C@H]5O[C@H](CO)[C@@H](O)[C@H](O)[C@@H]5O[C@@H]5O[C@H](CO)[C@@H](O[C@@H]6O[C@H](CO[C@]7(C(=O)O)C[C@H](O)[C@@H](NC(C)=O)[C@H]([C@H](O)[C@H](O)CO)O7)[C@H](O)[C@H](O)[C@H]6O)[C@H](O)[C@H]5NC(C)=O)[C@@H](O)[C@H](O[C@H]5O[C@H](CO)[C@@H](O)[C@H](O)[C@@H]5O[C@@H]5O[C@H](CO)[C@@H](O[C@@H]6O[C@H](CO[C@]7(C(=O)O)C[C@H](O)[C@@H](NC(C)=O)[C@H]([C@H](O)[C@H](O)CO)O7)[C@H](O)[C@H](O)[C@H]6O)[C@H](O)[C@H]5NC(C)=O)[C@@H]4O)[C@H](O)[C@H]3NC(C)=O)[C@H](O)[C@H]2NC(C)=O)NC(=O)CCSCC(=O)NCCO[C@@H]2O[C@H](CO)[C@@H](O[C@@H]3O[C@H](CO)[C@@H](O[C@@H]4O[C@H](CO[C@H]5O[C@H](CO)[C@@H](O)[C@H](O)[C@@H]5O[C@@H]5O[C@H](CO)[C@@H](O[C@@H]6O[C@H](CO[C@]7(C(=O)O)C[C@H](O)[C@@H](NC(C)=O)[C@H]([C@H](O)[C@H](O)CO)O7)[C@H](O)[C@H](O)[C@H]6O)[C@H](O)[C@H]5NC(C)=O)[C@@H](O)[C@H](O[C@H]5O[C@H](CO)[C@@H](O)[C@H](O)[C@@H]5O[C@@H]5O[C@H](CO)[C@@H](O[C@@H]6O[C@H](CO[C@]7(C(=O)O)C[C@H](O)[C@@H](NC(C)=O)[C@H]([C@H](O)[C@H](O)CO)O7)[C@H](O)[C@H](O)[C@H]6O)[C@H](O)[C@H]5NC(C)=O)[C@@H]4O)[C@H](O)[C@H]3NC(C)=O)[C@H](O)[C@H]2NC(C)=O)CSSC[C@@H](C(=O)N[C@@H](CC(N)=O)C(=O)N[C@@H](CO)C(=O)N[C@@H](Cc2ccccc2)C(=O)N[C@@H](CCCNC(=N)N)C(=O)N[C@@H](Cc2ccc(O)cc2)C(=O)O)NC(=O)CNC(=O)[C@H](CC(C)C)NC(=O)CNC(=O)[C@H](CO)NC(=O)[C@H](CCC(N)=O)NC(=O)[C@H](C)NC(=O)CNC1=O [Compound 2-34, SG-thioacetamide-(SG-thioacetamide-)Lys-PEG-(3)-hANP(1-28)]	0.53 nM
CC[C@H](C)[C@@H]1NC(=O)[C@H](CCCNC(=N)N)NC(=O)[C@H](CC(=O)O)NC(=O)[C@H](CCSC)NC(=O)[C@H](CCCNC(=N)N)NC(=O)CNC(=O)CNC(=O)[C@H](Cc2ccccc2)NC(=O)[C@@H](NC(=O)[C@H](CO)NC(=O)[C@H](CO)NC(=O)[C@H](CCCNC(=N)N)NC(=O)[C@H](CCCNC(=N)N)NC(=O)[C@H](CC(C)C)NC(=O)[C@H](CO)NC(=O)CCOCCOCCOCCOCCNC(=O)[C@H](CCCCNC(=O)CO[C@@H]2O[C@H](CO)[C@@H](O[C@@H]3O[C@H](CO)[C@@H](O[C@@H]4O[C@H](CO[C@H]5O[C@H](CO)[C@@H](O)[C@H](O)[C@@H]5O[C@@H]5O[C@H](CO)[C@@H](O[C@@H]6O[C@H](CO[C@]7(C(=O)O)C[C@H](O)[C@@H](NC(C)=O)[C@H]([C@H](O)[C@H](O)CO)O7)[C@H](O)[C@H](O)[C@H]6O)[C@H](O)[C@H]5NC(C)=O)[C@@H](O)[C@H](O[C@H]5O[C@H](CO)[C@@H](O)[C@H](O)[C@@H]5O[C@@H]5O[C@H](CO)[C@@H](O[C@@H]6O[C@H](CO[C@]7(C(=O)O)C[C@H](O)[C@@H](NC(C)=O)[C@H]([C@H](O)[C@H](O)CO)O7)[C@H](O)[C@H](O)[C@H]6O)[C@H](O)[C@H]5NC(C)=O)[C@@H]4O)[C@H](O)[C@H]3NC(C)=O)[C@H](O)[C@H]2NC(C)=O)NC(=O)CO[C@@H]2O[C@H](CO)[C@@H](O[C@@H]3O[C@H](CO)[C@@H](O[C@@H]4O[C@H](CO[C@H]5O[C@H](CO)[C@@H](O)[C@H](O)[C@@H]5O[C@@H]5O[C@H](CO)[C@@H](O[C@@H]6O[C@H](CO[C@]7(C(=O)O)C[C@H](O)[C@@H](NC(C)=O)[C@H]([C@H](O)[C@H](O)CO)O7)[C@H](O)[C@H](O)[C@H]6O)[C@H](O)[C@H]5NC(C)=O)[C@@H](O)[C@H](O[C@H]5O[C@H](CO)[C@@H](O)[C@H](O)[C@@H]5O[C@@H]5O[C@H](CO)[C@@H](O[C@@H]6O[C@H](CO[C@]7(C(=O)O)C[C@H](O)[C@@H](NC(C)=O)[C@H]([C@H](O)[C@H](O)CO)O7)[C@H](O)[C@H](O)[C@H]6O)[C@H](O)[C@H]5NC(C)=O)[C@@H]4O)[C@H](O)[C@H]3NC(C)=O)[C@H](O)[C@H]2NC(C)=O)CSSC[C@@H](C(=O)N[C@@H](CC(N)=O)C(=O)N[C@@H](CO)C(=O)N[C@@H](Cc2ccccc2)C(=O)N[C@@H](CCCNC(=N)N)C(=O)N[C@@H](Cc2ccc(O)cc2)C(=O)O)NC(=O)CNC(=O)[C@H](CC(C)C)NC(=O)CNC(=O)[C@H](CO)NC(=O)[C@H](CCC(N)=O)NC(=O)[C@H](C)NC(=O)CNC1=O [Compound 2-35, SG-(SG-)Lys-PEG(3)-hANP(1-28)]	0.31 nM
CC[C@H](C)[C@@H]1NC(=O)[C@H](CCCNC(=N)N)NC(=O)[C@H](CC(=O)O)NC(=O)[C@H](CCSC)NC(=O)[C@H](CCCNC(=N)N)NC(=O)CNC(=O)CNC(=O)[C@H](Cc2ccccc2)NC(=O)[C@@H](NC(=O)[C@H](CO)NC(=O)[C@H](CO)NC(=O)[C@H](CCCNC(=N)N)NC(=O)[C@H](CCCNC(=N)N)NC(=O)[C@H](CC(C)C)NC(=O)[C@H](CO)NC(=O)CNC(=O)[C@H](CO)NC(=O)CNC(=O)[C@H](CO)NC(=O)CNC(=O)[C@H](CO)NC(=O)[C@H](CC(=O)N[C@@H]2O[C@H](CO)[C@@H](O[C@@H]3O[C@H](CO)[C@@H](O[C@@H]4O[C@H](CO[C@H]5O[C@H](CO)[C@@H](O)[C@H](O)[C@@H]5O[C@@H]5O[C@H](CO)[C@@H](O[C@@H]6O[C@H](CO[C@]7(C(=O)O)C[C@H](O)[C@@H](NC(C)=O)[C@H]([C@H](O)[C@H](O)CO)O7)[C@H](O)[C@H](O)[C@H]6O)[C@H](O)[C@H]5NC(C)=O)[C@@H](O)[C@H](O[C@H]5O[C@H](CO)[C@@H](O)[C@H](O)[C@@H]5O[C@@H]5O[C@H](CO)[C@@H](O[C@@H]6O[C@H](CO[C@]7(C(=O)O)C[C@H](O)[C@@H](NC(C)=O)[C@H]([C@H](O)[C@H](O)CO)O7)[C@H](O)[C@H](O)[C@H]6O)[C@H](O)[C@H]5NC(C)=O)[C@@H]4O)[C@H](O)[C@H]3NC(C)=O)[C@H](O)[C@H]2NC(C)=O)NC(=O)CO[C@@H]2O[C@H](CO)[C@@H](O[C@@H]3O[C@H](CO)[C@@H](O[C@@H]4O[C@H](CO[C@H]5O[C@H](CO)[C@@H](O)[C@H](O)[C@@H]5O[C@@H]5O[C@H](CO)[C@@H](O[C@@H]6O[C@H](CO[C@]7(C(=O)O)C[C@H](O)[C@@H](NC(C)=O)[C@H]([C@H](O)[C@H](O)CO)O7)[C@H](O)[C@H](O)[C@H]6O)[C@H](O)[C@H]5NC(C)=O)[C@@H](O)[C@H](O[C@H]5O[C@H](CO)[C@@H](O)[C@H](O)[C@@H]5O[C@@H]5O[C@H](CO)[C@@H](O[C@@H]6O[C@H](CO[C@]7(C(=O)O)C[C@H](O)[C@@H](NC(C)=O)[C@H]([C@H](O)[C@H](O)CO)O7)[C@H](O)[C@H](O)[C@H]6O)[C@H](O)[C@H]5NC(C)=O)[C@@H]4O)[C@H](O)[C@H]3NC(C)=O)[C@H](O)[C@H]2NC(C)=O)CSSC[C@@H](C(=O)N[C@@H](CC(N)=O)C(=O)N[C@@H](CO)C(=O)N[C@@H](Cc2ccccc2)C(=O)N[C@@H](CCCNC(=N)N)C(=O)N[C@@H](Cc2ccc(O)cc2)C(=O)O)NC(=O)CNC(=O)[C@H](CC(C)C)NC(=O)CNC(=O)[C@H](CO)NC(=O)[C@H](CCC(N)=O)NC(=O)[C@H](C)NC(=O)CNC1=O [Compound 2-36, SG-(SG-)Asn-(Ser-Gly)3-hANP(1-28)]	0.39 nM
